Experimental data taken from patent US20250360057A1, “ENHANCING DENTIN BONDING DURABILITY USING QUATERNARY PYRIDINIUM SALTS” (ADA Science and Research Institute LLC, priority 2022, published 2025).

Legend:
Type in all cases: physicochemical
[1] = Degree of (vinyl) conversion (DC) of cured dental adhesive/resin by FT-IR (ATR); conditions: for Degree of Conversion: resin 70 wt % Bis-GMA / 30 wt % TEGDMA with CQ/4E; for change of Degree of Conversion (in words) / decrease of Degree of Conversion / increase of Degree of Conversion: versus resin without additive; for change of Degree of Conversion (in words) / decrease of Degree of Conversion: Bis-GMA/TEGDMA resin; for increase of Degree of Conversion: 70 wt % Bis-GMA / 30 wt % TEGDMA, CQ/4E; for Degree of Conversion (%): approx 0.25 wt % additive; for effect on DC (in words): both adhesives (SB and B6H4)
[2] = molecular target: T1, pseudocholine esterase from equine serum (PCE) (Equus caballus, UniProt P81908); test: Biostability: AFM-based step height change (ΔH) under enzymatic challenge
T1 construct: pseudocholine esterase from equine serum; purchased Sigma C7512; host or cells: equine serum
T1 sequence (P81908 whole entry): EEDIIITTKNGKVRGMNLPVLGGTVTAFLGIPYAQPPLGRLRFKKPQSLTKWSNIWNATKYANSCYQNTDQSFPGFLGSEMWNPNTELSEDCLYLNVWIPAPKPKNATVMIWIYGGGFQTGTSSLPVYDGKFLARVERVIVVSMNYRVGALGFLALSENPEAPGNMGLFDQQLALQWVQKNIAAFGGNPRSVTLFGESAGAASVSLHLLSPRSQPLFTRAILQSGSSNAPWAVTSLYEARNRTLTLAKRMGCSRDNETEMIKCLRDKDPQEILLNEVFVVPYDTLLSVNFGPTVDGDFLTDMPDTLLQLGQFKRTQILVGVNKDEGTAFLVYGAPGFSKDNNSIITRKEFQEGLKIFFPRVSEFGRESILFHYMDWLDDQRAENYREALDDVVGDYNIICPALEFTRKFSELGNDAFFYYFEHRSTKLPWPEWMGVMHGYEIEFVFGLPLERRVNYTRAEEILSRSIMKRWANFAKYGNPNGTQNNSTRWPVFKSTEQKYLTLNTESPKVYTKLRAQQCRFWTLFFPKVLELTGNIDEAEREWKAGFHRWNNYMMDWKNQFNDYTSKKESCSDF
Excerpt: Various embodiments of the present application can be better understood by reference to the following Examples which are offered by way of illustration. The scope of the present application is not limited to the Examples given herein. The enzymatic challenge measurement method described herein is described in Wang X, Song S, Chen L, Stafford CM, Sun J, Acta Biomater., 2018, 74, 326, and Yamauchi S, Wang X, Egusa H, Sun J. “High-performance dental adhesives containing an ether-based monomer” Journal of Dental Research, 2020, 99, 189, which are both incorporated by reference herein in their entireties.
Biostability of the dental materials such as resins and adhesives is of critical importance to their durability. These materials may break down in the oral environment, which may be due to enzymatic and/or bacterial challenges, which can result in failure of the restoration and secondary caries. The stability against enzymatic challenges of dental materials including adhesives and resins, with and without additives, was evaluated using an atomic force microscopy (AFM)-based method, described by Wang et al., in “Short-time dental resin biostability and kinetics of enzymatic degradation”, Acta Biomaterialia, Volume 74, 1 Jul. 2018, Pages 326-333, incorporated herein in its entirety. Briefly, this method allows evaluation of materials by assessing the step height (H) and the changes in the step height (ΔH), that are caused by enzymatic exposure. The ΔH values are caused as material exposed to salivary enzymes or the like is removed due to degradation of the exposed material.
The stability of SB was compared to the same adhesive incorporating Azo-QPS-C16 as an additive at approximately 0.25 wt %. Samples were prepared according to the method described by Wang, and were exposed to either pseudocholine esterase from equine serum (PCE, Product No. C7512, Sigma, Saint Louis, MO, USA) were reconstituted in saline solution containing 40 mM magnesium chloride and 99 mM of sodium chloride following vender's instruction, or a control solution without PCE for various times up to 72 hours. […] For the SB sample exposed to PCE, the ΔH value increased to about 175 nm. In comparison, the addition of approximately 0.25 wt % Azo-QPS-C16 reduced the ΔH values after 72 hours to about 50 nm and about 60 nm for the control and PCE-exposed samples, respectively, thus showing inclusion of Azo-QPC-C16 in the adhesive improved the stability dramatically.

[3] = Glass transition temperature (Tg) / tan δ peak by dynamic mechanical analysis (DMA)
Procedure: The degree of conversion (DC) and glass transition temperature (Tg) of adhesives and resins with or without the additives (such as Azo-QPS-C16) were measured by Fourier transform infrared (FTIR) spectrometer and dynamic mechanical analyzer (DMA), respectively. The stability against enzymatic challenges of four adhesives (and resins) was evaluated using an atomic force microscopy (AFM)-based method. The adhesives' bonding strength and bonding durability are determined and compared based on shear bond strength (SBS), micro-tensile bond strength (pTBS), and bonding durability under the challenges of thermal cycling.
The glass transition temperature (Tg) of adhesives with or without additive were measured by dynamic mechanical analysis (DMA).

[4] = molecular target: T1, pseudocholine esterase from equine serum (PCE); test: Biostability: AFM-based step height change (ΔH) under enzymatic challenge; remark: listed apart in the source
[5] = B6H4, approximately 0.25 wt % additive

C=C(C)C(=O)Oc1ccc(/N=N/c2ccncc2)cc1 [Azo-Py-MA, reference compound]
Degree of Conversion ([1]; 0.5 wt % additive): 70.2% | change of Degree of Conversion (in words) [1]: no change

Oc1ccc(/N=N/c2ccncc2)cc1 [Azo-Py-OH, reference compound]
Degree of Conversion ([1]; 0.5 wt % additive): 68.4% | decrease of Degree of Conversion [1]: 1.8%

CC(C)C(=O)Oc1ccc(/N=N/c2ccncc2)cc1 [Azo-Py-iBu, (E)-4-(pyridin-4-yldiazenyl)phenyl isobutyrate, reference compound]
Degree of Conversion ([1]; 0.5 wt % additive): 66.7% | decrease of Degree of Conversion [1]: 3.5%

C=C(C)C(=O)Oc1ccc(/N=N/c2cc[n+](CC)cc2)cc1.[Br-] [Azo-QPS-C2-MA]
Degree of Conversion ([1]; 0.5 wt % additive): 72.3% | increase of Degree of Conversion ([1]; 0.5 wt % additive): 2.1%

C=C(C)C(=O)Oc1ccc(/N=N/c2cc[n+](CCCCCCCCCCCCCCCC)cc2)cc1.[Br-] [Azo-QPS-C16, (E)-1-hexadecyl-4-((4-(methacryloyloxy)phenyl)diazenyl)-pyridinium bromide]
ΔH ([2]; SB, approximately 0.25 wt % additive, PCE-exposed, after 72 hours): about 60 nm | ΔH ([2]; SB, approximately 0.25 wt % additive, control solution without PCE, after 72 hours): about 50 nm | DC (%) ([1]; B6H4/CQ/4E, 0.1 wt % additive): 76.9 ± 0.7% | DC (%) ([1]; B6H4/CQ/4E, 0.25 wt % additive): 79.5 ± 0.8% | DC (%) ([1]; B6H4/CQ/4E, 0.5 wt % additive): 80.5 ± 1.2% | DC (%) ([1]; B6H4/CQ/4E, 1.0 wt % additive): 81.3 ± 1.4% | DC (%) ([1]; B6H4/CQ/4E, 1.25 wt % additive): 76.2 ± 1.5% | DC (%) ([1]; B6H4/CQ/4E, 1.5 wt % additive): 64.4 ± 2.2% | DC (%) ([1]; B6H4/CQ/4E, 2.0 wt % additive): 26.0 ± 2.6% | Degree of Conversion (%) ([1]; EBSE adhesive): 73.7 ± 0.6% | Degree of Conversion (%) ([1]; PBNT adhesive): 66.4 ± 0.7% | Degree of Conversion (%) ([1]; SBP adhesive): 70.3 ± 0.5% | Degree of Conversion (%) ([1]; SUP adhesive): 72.5 ± 1.0% | DC (%) ([1]; Scotchbond Multi-Purpose (SB), 0.1 wt % additive): 76.1 ± 0.8% | DC (%) ([1]; Scotchbond Multi-Purpose (SB), 0.25 wt % additive): 78.6 ± 0.9% | DC (%) ([1]; Scotchbond Multi-Purpose (SB), 0.5 wt % additive): 79.2 ± 1.1% | DC (%) ([1]; Scotchbond Multi-Purpose (SB), 1.0 wt % additive): 79.5 ± 1.4% | DC (%) ([1]; Scotchbond Multi-Purpose (SB), 1.25 wt % additive): 75.5 ± 1.5% | DC (%) ([1]; Scotchbond Multi-Purpose (SB), 1.5 wt % additive): 55.0 ± 1.4% | DC (%) ([1]; Scotchbond Multi-Purpose (SB), 2.0 wt % additive): 12.8 ± 3.1% | Degree of Conversion (%) ([1]; XIV adhesive): 74.2 ± 1.1% | effect on DC (in words) ([1]; approximately 0.1 wt % additive): enhances the DC of both adhesives | effect on DC (in words) ([1]; more than approximately 1.25 wt % additive (about 1.5 or 2 wt %)): significant DC decrease | Degree of Conversion ([1]; 0.5 wt % additive): 74.5% | increase of Degree of Conversion ([1]; 0.5 wt % additive): 4.3% | glass transition temperature (Tg) [3, 5]: increases | tan δ peak [3, 5]: narrowed | tan δ peak ([3]; SB, approximately 0.25 wt % additive): narrowed | ΔH ([4]; B6H4 with CQ/4E, approximately 0.25 wt % additive, control, after 72 hours): about 50 nm | ΔH ([4]; B6H4 with CQ/4E, approximately 0.25 wt % additive, exposed to PCE, after 72 hours): about 70 nm | effect on ΔH values (in words) ([4]; adhesives PBNT, SBP, SUP, EBSE and XIV, approximately 0.25 wt % additive versus no additive (FIGS. 8-12)): decreased the ΔH values

CC(C)C(=O)Oc1ccc(/N=N/c2cc[n+](CCCCCBr)cc2)cc1.[Br-] [Br-C6-Azo-Py-iBu]
Degree of Conversion ([1]; 0.5 wt % additive): 75.1% | increase of Degree of Conversion ([1]; 0.5 wt % additive): 4.9%

C=C(C)C(=O)OCCCCCC[n+]1ccc(/N=N/c2ccc(OC(=O)C(C)C)cc2)cc1.[Br-] [MA-C6-Azo-Py-iBu]
ΔH ([2]; Scotchbond (SB), PCE (FIG. 7)): ~70 nm | ΔH ([2]; Scotchbond (SB), control (FIG. 7)): approximately 50 nm | Degree of Conversion ([1]; 0.5 wt % additive): 74.9% | increase of Degree of Conversion ([1]; 0.5 wt % additive): 4.7% | ΔH ([4]; B6H4, approximately 0.25 wt % additive, PCE (FIG. 6)): ~65 nm | ΔH ([4]; B6H4, approximately 0.25 wt % additive, control (FIG. 6)): approximately 50 nm

C=C(C)C(=O)OCCNC(=O)OCCCCCCCC[n+]1ccc(/N=N/c2ccc(OC(=O)C(C)C)cc2)cc1.[Br-] [MA-CB13-Azo-QPS-iBu]
biostability of the adhesives (in words) ([2]; added to dental adhesives): has not been demonstrated to improve the biostability | Degree of Conversion ([1]; 0.5 wt % additive): 70.7% | increase of Degree of Conversion ([1]; 0.5 wt % additive): 0.5%

c1ccc(/N=N/c2ccccc2)cc1 [reference compound]
change of Degree of Conversion (in words) [1]: No change

c1cc(N=Nc2ccncc2)ccn1 [reference compound]
change of Degree of Conversion (in words) [1]: No change

c1cc(CCc2ccncc2)ccn1 [reference compound]
change of Degree of Conversion (in words) [1]: No change
